Assay results from publication PMC9851200, “Multiparameter phenotypic screening for endogenous TFEB and TFE3 translocation identifies novel chemical series modulating lysosome function” (Autophagy, 2022).

Columns and labels:
Type in all cases: binding
[1] = molecular target: T1, kinases (KINOMEscan panel) (Homo sapiens, UniProt Q16832); details: DDR2; NEW KINOMEscan
T1 sequence (Q16832 22-855): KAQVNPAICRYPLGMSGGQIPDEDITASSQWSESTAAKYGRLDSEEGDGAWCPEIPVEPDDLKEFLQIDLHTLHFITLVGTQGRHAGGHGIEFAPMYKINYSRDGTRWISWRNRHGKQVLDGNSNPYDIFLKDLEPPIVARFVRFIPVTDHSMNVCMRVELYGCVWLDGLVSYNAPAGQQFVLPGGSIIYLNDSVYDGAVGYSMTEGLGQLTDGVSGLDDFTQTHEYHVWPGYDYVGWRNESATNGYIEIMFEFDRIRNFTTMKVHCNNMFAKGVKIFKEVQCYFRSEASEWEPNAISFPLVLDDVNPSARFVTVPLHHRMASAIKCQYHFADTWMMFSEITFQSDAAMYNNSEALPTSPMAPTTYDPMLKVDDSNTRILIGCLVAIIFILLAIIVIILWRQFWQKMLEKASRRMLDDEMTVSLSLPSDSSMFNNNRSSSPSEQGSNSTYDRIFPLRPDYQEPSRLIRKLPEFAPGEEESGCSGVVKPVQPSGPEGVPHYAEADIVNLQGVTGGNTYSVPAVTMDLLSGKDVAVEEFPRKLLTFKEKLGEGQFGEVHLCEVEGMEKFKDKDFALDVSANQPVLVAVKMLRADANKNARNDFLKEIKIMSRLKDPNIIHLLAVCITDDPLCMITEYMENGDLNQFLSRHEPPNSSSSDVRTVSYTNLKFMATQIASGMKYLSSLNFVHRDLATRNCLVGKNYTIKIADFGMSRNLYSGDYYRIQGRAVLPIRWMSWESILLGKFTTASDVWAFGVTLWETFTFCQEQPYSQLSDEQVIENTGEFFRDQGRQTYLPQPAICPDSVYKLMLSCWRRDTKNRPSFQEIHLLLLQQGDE

[2] = molecular target: kinases (KINOMEscan panel) (Homo sapiens, UniProt Q2M2I8); details: AAK1; NEW KINOMEscan
[3] = molecular target: T2, kinases (KINOMEscan panel) (Homo sapiens, UniProt Q13976); details: kinase PRKG1; NEW KINOMEscan
T2 sequence (Q13976 1-671): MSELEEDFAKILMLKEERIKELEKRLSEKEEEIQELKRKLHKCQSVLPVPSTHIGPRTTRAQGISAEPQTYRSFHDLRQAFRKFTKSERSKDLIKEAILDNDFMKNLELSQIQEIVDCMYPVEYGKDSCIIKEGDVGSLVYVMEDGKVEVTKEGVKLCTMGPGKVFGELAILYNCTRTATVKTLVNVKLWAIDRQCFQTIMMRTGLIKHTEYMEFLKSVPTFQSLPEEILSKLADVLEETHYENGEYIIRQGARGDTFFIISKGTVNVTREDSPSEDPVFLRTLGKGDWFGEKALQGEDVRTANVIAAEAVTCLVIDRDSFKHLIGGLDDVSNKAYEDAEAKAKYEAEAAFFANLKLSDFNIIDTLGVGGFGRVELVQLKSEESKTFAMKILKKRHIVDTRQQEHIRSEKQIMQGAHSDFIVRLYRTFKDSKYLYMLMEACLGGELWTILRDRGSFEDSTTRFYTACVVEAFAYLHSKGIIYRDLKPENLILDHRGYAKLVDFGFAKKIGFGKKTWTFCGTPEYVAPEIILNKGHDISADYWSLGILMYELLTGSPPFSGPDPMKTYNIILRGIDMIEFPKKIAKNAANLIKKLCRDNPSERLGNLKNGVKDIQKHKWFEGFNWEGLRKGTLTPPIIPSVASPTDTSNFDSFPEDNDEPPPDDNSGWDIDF

[4] = molecular target: kinases (KINOMEscan panel) (Homo sapiens, UniProt P48729); details: CSNK1A1; NEW KINOMEscan
kinases (KINOMEscan panel) (Homo sapiens, UniProt P48729), sequence (P48729 whole entry): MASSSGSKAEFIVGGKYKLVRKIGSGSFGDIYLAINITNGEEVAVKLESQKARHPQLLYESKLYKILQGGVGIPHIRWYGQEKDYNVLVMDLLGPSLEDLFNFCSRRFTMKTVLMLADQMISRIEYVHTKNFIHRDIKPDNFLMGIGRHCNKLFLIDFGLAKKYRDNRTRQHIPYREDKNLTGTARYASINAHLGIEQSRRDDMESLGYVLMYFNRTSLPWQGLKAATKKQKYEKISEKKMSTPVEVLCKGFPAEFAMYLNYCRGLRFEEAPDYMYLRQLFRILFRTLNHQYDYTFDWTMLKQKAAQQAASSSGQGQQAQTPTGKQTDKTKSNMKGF

[5] = molecular target: kinases (KINOMEscan panel) (Homo sapiens, UniProt P41240); details: kinase CSK; NEW KINOMEscan
[6] = molecular target: kinases (KINOMEscan panel) (Homo sapiens, UniProt O95747); details: NEW KINOMEscan
[7] = molecular target: kinases (KINOMEscan panel) (Homo sapiens, UniProt Q8NI60); details: COQ8A; NEW KINOMEscan
kinases (KINOMEscan panel) (Homo sapiens, UniProt Q8NI60), sequence (Q8NI60 163-647): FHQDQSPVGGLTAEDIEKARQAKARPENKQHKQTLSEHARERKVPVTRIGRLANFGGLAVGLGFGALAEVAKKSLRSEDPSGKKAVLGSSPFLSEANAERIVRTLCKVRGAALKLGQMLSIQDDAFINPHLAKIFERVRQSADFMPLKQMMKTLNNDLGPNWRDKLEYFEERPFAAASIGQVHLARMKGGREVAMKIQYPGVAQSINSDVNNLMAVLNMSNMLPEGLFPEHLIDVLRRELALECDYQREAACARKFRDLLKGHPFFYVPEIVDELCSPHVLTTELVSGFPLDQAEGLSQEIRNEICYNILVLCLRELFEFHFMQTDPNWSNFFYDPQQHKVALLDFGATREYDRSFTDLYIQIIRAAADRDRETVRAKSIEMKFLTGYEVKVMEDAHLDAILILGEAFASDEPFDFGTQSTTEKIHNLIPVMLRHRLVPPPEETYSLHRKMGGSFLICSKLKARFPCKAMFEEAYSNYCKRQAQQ

[8] = molecular target: kinases (KINOMEscan panel) (Homo sapiens, UniProt Q15746); details: kinase MYLK; NEW KINOMEscan
kinases (KINOMEscan panel) (Homo sapiens, UniProt Q15746), sequence (Q15746 whole entry): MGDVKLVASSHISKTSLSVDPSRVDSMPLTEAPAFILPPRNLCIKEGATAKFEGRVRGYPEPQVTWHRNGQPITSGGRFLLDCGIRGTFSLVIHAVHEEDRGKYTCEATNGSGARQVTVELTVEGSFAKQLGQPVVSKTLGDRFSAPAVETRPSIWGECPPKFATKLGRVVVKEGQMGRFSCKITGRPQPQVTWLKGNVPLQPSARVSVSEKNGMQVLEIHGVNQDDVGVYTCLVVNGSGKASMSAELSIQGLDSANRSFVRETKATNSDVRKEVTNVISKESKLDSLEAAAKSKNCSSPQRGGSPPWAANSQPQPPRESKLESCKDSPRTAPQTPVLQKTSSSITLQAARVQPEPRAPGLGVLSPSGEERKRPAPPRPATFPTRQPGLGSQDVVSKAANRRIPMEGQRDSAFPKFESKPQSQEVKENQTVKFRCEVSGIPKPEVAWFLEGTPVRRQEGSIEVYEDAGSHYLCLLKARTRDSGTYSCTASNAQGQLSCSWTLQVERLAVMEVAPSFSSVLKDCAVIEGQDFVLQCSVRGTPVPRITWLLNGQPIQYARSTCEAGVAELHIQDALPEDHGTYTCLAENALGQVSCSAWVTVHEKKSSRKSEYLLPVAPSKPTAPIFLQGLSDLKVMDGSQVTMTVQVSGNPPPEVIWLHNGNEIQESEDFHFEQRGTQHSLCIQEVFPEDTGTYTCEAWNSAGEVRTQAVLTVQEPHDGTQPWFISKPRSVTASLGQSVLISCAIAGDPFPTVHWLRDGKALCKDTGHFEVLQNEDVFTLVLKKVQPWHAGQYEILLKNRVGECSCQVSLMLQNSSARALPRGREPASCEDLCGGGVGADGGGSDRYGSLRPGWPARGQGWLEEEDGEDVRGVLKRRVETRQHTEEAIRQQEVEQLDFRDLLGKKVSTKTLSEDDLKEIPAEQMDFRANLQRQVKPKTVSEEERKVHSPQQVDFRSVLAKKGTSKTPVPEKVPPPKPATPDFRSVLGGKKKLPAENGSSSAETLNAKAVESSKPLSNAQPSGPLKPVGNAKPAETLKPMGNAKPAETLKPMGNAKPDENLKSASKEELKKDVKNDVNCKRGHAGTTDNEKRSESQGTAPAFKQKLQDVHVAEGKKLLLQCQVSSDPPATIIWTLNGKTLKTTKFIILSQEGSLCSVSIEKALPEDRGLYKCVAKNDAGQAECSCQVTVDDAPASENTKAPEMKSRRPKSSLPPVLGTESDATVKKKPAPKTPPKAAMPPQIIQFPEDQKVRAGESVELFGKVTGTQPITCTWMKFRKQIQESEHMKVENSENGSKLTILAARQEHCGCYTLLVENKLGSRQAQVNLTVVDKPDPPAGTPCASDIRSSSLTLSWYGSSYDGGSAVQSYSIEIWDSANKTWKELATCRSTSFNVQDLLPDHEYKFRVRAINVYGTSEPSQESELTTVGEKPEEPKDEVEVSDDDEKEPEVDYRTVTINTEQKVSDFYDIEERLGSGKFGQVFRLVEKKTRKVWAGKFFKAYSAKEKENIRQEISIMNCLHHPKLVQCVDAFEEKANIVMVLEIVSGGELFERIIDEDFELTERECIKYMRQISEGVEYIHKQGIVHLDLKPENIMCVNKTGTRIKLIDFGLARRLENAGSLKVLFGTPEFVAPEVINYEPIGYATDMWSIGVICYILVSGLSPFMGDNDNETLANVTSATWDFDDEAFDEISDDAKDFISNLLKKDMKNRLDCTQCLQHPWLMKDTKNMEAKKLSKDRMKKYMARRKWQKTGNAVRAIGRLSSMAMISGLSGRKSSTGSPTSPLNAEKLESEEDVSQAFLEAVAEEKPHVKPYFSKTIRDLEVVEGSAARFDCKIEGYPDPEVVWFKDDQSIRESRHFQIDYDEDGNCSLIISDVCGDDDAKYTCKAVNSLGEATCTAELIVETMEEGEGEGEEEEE

[9] = molecular target: kinases (KINOMEscan panel) (Homo sapiens, UniProt Q99755); details: NEW KINOMEscan
[10] = molecular target: kinases (KINOMEscan panel) (Homo sapiens, UniProt Q9H4A3); details: NEW KINOMEscan
kinases (KINOMEscan panel) (Homo sapiens, UniProt Q9H4A3), sequence (Q9H4A3 whole entry): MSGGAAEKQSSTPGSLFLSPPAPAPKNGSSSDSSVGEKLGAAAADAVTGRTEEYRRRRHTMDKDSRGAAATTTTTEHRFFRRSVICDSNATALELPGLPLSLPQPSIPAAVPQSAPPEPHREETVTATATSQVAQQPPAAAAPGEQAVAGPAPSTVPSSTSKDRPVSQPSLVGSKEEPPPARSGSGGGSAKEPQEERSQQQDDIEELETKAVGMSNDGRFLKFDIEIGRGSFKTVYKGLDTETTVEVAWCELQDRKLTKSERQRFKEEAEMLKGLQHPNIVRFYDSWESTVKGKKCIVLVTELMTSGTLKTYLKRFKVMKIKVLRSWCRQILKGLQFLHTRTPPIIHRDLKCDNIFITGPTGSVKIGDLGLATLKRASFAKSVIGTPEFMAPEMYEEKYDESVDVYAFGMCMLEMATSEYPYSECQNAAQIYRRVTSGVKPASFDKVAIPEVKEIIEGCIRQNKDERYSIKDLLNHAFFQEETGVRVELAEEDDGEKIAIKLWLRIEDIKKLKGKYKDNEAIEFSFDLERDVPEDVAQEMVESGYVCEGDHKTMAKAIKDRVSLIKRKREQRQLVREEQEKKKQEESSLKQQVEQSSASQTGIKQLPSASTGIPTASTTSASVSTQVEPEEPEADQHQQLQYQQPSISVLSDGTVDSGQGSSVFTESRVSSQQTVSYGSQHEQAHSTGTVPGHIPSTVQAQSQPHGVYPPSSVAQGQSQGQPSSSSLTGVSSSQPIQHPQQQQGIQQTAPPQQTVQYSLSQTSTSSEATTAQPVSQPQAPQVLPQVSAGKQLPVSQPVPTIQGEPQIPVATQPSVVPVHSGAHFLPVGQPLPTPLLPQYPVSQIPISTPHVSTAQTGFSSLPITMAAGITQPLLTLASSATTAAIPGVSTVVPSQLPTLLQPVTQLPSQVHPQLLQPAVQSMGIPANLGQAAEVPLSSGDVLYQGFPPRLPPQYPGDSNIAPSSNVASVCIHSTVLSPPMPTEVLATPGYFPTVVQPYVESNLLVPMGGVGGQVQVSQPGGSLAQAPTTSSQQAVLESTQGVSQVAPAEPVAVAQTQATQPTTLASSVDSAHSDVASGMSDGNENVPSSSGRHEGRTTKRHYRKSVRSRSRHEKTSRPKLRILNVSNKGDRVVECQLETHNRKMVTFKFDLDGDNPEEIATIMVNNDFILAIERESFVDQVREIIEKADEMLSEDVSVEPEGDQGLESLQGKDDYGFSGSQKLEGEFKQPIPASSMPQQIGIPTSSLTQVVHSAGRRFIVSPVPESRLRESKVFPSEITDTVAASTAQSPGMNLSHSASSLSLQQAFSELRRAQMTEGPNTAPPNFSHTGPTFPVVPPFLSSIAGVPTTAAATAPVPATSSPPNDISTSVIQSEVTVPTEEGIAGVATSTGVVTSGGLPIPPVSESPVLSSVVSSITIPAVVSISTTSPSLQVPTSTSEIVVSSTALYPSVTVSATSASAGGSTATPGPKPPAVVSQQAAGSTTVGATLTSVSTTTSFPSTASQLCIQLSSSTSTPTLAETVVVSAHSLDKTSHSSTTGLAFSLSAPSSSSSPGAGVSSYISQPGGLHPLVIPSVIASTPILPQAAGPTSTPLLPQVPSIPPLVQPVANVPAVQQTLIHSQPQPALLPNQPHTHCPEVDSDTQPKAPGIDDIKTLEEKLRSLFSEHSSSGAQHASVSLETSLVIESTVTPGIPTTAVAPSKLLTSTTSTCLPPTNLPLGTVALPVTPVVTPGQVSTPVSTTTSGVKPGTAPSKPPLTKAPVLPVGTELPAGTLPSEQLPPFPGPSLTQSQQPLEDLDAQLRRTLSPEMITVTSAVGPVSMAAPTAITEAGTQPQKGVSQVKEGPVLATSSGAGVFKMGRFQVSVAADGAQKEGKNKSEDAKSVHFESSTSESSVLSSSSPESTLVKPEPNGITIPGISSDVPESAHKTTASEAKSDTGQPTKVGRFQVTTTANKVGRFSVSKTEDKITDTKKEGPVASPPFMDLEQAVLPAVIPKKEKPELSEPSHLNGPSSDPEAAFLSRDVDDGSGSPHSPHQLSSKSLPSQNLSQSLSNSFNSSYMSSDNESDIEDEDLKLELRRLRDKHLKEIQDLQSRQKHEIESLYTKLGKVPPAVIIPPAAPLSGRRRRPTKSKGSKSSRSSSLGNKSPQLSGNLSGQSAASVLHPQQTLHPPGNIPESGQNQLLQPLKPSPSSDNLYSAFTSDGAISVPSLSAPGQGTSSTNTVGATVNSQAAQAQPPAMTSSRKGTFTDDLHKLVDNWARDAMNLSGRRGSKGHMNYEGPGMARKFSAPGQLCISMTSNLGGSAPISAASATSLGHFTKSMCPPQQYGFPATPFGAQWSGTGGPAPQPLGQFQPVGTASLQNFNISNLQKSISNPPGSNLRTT

Compound	KINOMEscan DDR2 [1]	KINOMEscan AAK1 [2]	KINOMEscan PRKG1 [3]	KINOMEscan CSNK1A1 [4]	KINOMEscan CSK [5]	KINOMEscan OSXR1 [6]	KINOMEscan COQ8A [7]	KINOMEscan MYLK [8]	KINOMEscan PIP5K1A [9]	KINOMEscan WNK1 [10]
Cc1cccc(-c2nc(Nc3ccc4nn(C)cc4c3)c3ccccc3n2)n1 [NK167]	2	1	0	7	6	11	5	19	49	0
Cc1cccc(-c2nc(N(C)c3ccc4ncsc4c3)c3ccccc3n2)n1 [NK-161]	1	5	10	10	0	25	1	3	52	9
